Earlier results on 2 molecules are cited in patent US9861605B2, “Enriched injectable emulsion containing selected fatty acid triglycerides” (STABLE SOLUTIONS LLC, priority 2011, dated 2018).

The conditions of this series: against water.

Molecules are shown by their SMILES.

With `CCCCCCCC(=O)O` [caprylic acid], the interfacial tension entry is listed as “approximately 8.2 dyne/cm”.

On to `CCCCCCCC/C=C\CCCCCCCC(=O)O` [oleic acid], for which the interfacial tension is 15.6 dyne/cm.
